# Test results as given in patent US20180280393A1, “METHODS AND COMPOSITIONS FOR TREATMENT OF METASTATIC AND REFRACTORY CANCERS AND TUMORS” (The Wistar Institute of Anatomy and Biology, priority 2015, published 2018).
# Experiments:
# [1] = test system: A2780 ovarian cancer cells; test: Molecular screening of compounds on A2780 cell proliferation (resazurin fluorescence); assay type: cell-based, human; settings: except at a high concentration
# Method: (§1) Cell proliferation assays—Cells were plated in 96-well plates. Compounds were added the next morning, and cell proliferation was measured 48 hrs later with the […] 96 MTS assay (Promega) according to the manufacturer's instructions. Molecular screening of compounds on A2780 cells was performed by adding compounds the morning after plating in 384-well plates and measuring proliferation 72 hrs later with resazurin fluorescence. Normalized percent inhibition (NPI) was calculated with respect to fluorescence values obtained with DMSO negative control and doxorubicin (5 μM) positive control as NPI=100%*(DMSO−compound)/(DMSO−doxorubicin). TCR ligation of human CD8 T cells
# (§2) EC50 values were calculated from normalized percent inhibition data using non-linear curve fitting in PRISM software.
# MCF-7 tumor cells = test: MCF-7 cell proliferation, MTS assay; assay type: cell-based, human; settings: 2 days
# Method: Representative results from one of two independent experiments.
# as §1
# human T cells [2] = test: aAPC (anti-CD3/anti-CD28)-induced human T cell proliferation, CELLTRACE; assay type: cell-based; settings: 7 days
# Method: Four plots show proliferation of CD8 cells after 7 days is shown. […] Proliferation of CD8 cells after 7 days is shown. T cell stimulation-For human T cell proliferation assays, peripheral blood lymphocytes were obtained by leukapheresis/elutriation and Miltenyi bead-purified and K562 cells expressing human CD32 were generated as previously described^41. […] were γ-irradiated (100 Gy) and loaded with anti-CD3 (500 ng/ml, clone OKT3; eBioscience) plus anti-CD28 (500 ng/ml, clone 15E8; EMD Millipore) antibodies at room temperature for 10 minutes. PBMCs were labeled with CELLTRACE Violet stain (Invitrogen) according to the manufacturer's instructions and cocultured with loaded […] cells at a 10:1 T cells:[…] ratio or activated with ConA (2 μg/ml, Sigma). Proliferation of stimulated T cells was determined 7 days later by FACS and Division Index was calculated using FlowJo software.
# human T cells [3] = test: ConA-induced activation and expansion of human T cells (high-throughput screen); assay type: cell-based
# Method: T cell stimulation—For human T cell proliferation assays, peripheral blood lymphocytes were obtained by leukapheresis/elutriation and Miltenyi bead-purified and K562 cells expressing human CD32 were generated as previously described^41. […] PBMCs were labeled with CELLTRACE Violet stain (Invitrogen) according to the manufacturer's instructions and cocultured with loaded K32 cells at a 10:1 T cells:K32 ratio or activated with ConA (2 μg/ml, Sigma). Proliferation of stimulated T cells was determined 7 days later by FACS and Division Index was calculated using FlowJo software.
# as §2
# ERK1/2 phosphorylation = test: TCR ligation of human CD8 T cells, Western blot for ERK1/2 phosphorylation; assay type: cell-based
# Method: FIG. 2C is a blot showing FACS-sorted human CD8 T cells that were stimulated by anti-CD3/CD28 crosslinking in the presence of the indicated compounds as described in methods. After 10 min, cells were harvested for Western blotting.
# CD8+ cells were sorted from PBMCs and rested overnight in R10. T cells (0.5×10^6 per condition) were stained with OKT3-biotin (BioLegend, 10 μg/ml) for 15 mins on ice, and washed in cold PBS. TCR ligation was performed by adding streptavidin (Promega, 25 μg/ml) and anti-CD28 (Millipore, clone 15E8, 1 μg/ml) in the presence of indicated inhibitors for 10 min at 37° C.
# Western blotting—Cells were lysed in RIPA buffer (Thermo Scientific) with protease inhibitors (Complete Protease Inhibitor Cocktail Tablets, Roche) and phosphatase inhibitors (Halt Phosphatase Inhibitor, Thermo Scientific, and Na3VO4, 1 mM) and cleared by centrifugation. Proteins were quantified by BCA assay (Thermo Scientific), diluted in reducing lamelli buffer, denatured by incubation at 95° C., run on mini Protean TGX Ready Gels (Bio-Rad Laboratories), transferred to a nitrocellulose membrane, blocked, and incubated with primary antibodies for p-ERK1/2 (Cell Signaling Technologies, clone D13.14.4E), p-AKT (Cell Signaling Technologies, clone D9E), beta-tubulin (Cell Signaling Technologies, clone 9F3), beta-actin (Sigma, clone AC-15), or IGF-1R (Cell Signaling Technologies, #3027). Immunoreactive bands were developed using horseradish peroxidase-conjugated secondary antibodies (Bio-Rad Laboratories) and ECL substrate (GE Healthcare).
# osteopontin (SPP1) = test: LC-MS/MS of culture supernatants from Brpkp110 cells; assay type: cell-based, mouse; settings: 200 nM, 40 hrs
# Method: Supernatants were collected, centrifuged, passed through a 0.22 μm filter, and concentrated by centrifugation in Amicon 3000 MWCO tubes (EMD Millipore). Concentrated sups were run 0.5 cm on a NuPage 12% Gel with MES buffer, extracted, and digested with trypsin.
# Liquid chromatography tandem mass spectrometry (LC-MS/MS) analysis was performed by the Wistar Proteomics Facility using a Q Exactive Plus mass spectrometer (Thermo Scientific) coupled with a Nano-ACQUITY UPLC system (Waters). Samples were injected onto a UPLC Symmetry trap column (180 μm i.d.×2 cm packed with 5 μm C18 resin; Waters), and tryptic peptides were separated by RP-HPLC on a BEH C18 nanocapillary analytical column (75 μm i.d.×25 cm, 1.7 μm particle size; Waters) using a gradient formed by solvent A (0.1% formic acid in water) and solvent B (0.1% formic acid in acetonitrile). Peptides were eluted at 200 nL/min for 5-30% B over 225 min, 30-80% B over 5 min, constant 80% B for 10 min before returning to 5% B over 1 min. A 30-min blank gradient was run between sample injections to minimize carryover. Eluted peptides were analyzed by the mass spectrometer set to repetitively scan m/z from 400 to 2000. […]
# MS data were analyzed with MaxQuant 1.5.2.8 software^42. […]
# Brpkp110 cells = test: Brpkp110 cell proliferation, MTS assay; assay type: cell-based, mouse; settings: in vitro, 2 days
# Method: as §1
# human T cells [4] = test: Cytokine rescue of human T cell proliferation from MEK inhibition; assay type: cell-based
# Method: Proliferation of CD8 T cells after 7 days is shown.
# FIG. 2D is a graph showing that human PBMCs were activated as in FIG. 2B with the indicated compounds, BKM120=2 μM.
# Reported are percentages of cells that proliferated with GDC0973 relative to vehicle treatment with the same cytokines after 7 days. Stains are not depicted.
# T cell stimulation—For human T cell proliferation assays, peripheral blood lymphocytes were obtained by leukapheresis/elutriation and Miltenyi bead-purified and K562 cells expressing human CD32 were generated as previously described^41. K32 were γ-irradiated (100 Gy) and loaded with anti-CD3 (500 ng/ml, clone OKT3; eBioscience) plus anti-CD28 (500 ng/ml, clone 15E8; EMD Millipore) antibodies at room temperature for 10 minutes. PBMCs were labeled with CELLTRACE Violet stain (Invitrogen) according to the manufacturer's instructions and cocultured with loaded K32 cells at a 10:1 T cells:K32 ratio or activated with ConA (2 μg/ml, Sigma). Proliferation of stimulated T cells was determined 7 days later by FACS and Division Index was calculated using FlowJo software.
compound,measurement,setting,value
C[C@]1(O)C[C@@H](c2nc(-c3ccc4ccc(-c5ccccc5)nc4c3)c3c(N)nccn32)C1 [OSI906],activity on A2780 cells,[1],did not show any activity
same,tumor cell proliferation of MCF-7 cells,MCF-7 tumor cells,a reduction in tumor cell proliferation at concentrations that did not affect T cells
same,proliferation of human T cells in response to aAPC coated with agonistic CD3 and CD28 antibodies,human T cells [2],did not impact
same,activity on T cells,human T cells [3]; except at a high concentration,did not show any activity
"CCCCCCCCCCCCCC(=O)O[C@@H]1[C@@H](C)[C@@]2(O)[C@@H](C=C(CO)C[C@]3(O)C(=O)C(C)=C[C@@H]23)[C@@H]2C(C)(C)[C@]12OC(C)=O [PMA, phorbol-12-myristate-13-acetate]",ERK phosphorylation under PI3K inhibition,ERK1/2 phosphorylation; without fully restoring AKT phosphorylation,completely overcomes the suppressive effect
CC(=O)Nc1cccc(-n2c(=O)n(C3CC3)c(=O)c3c(Nc4ccc(I)cc4F)n(C)c(=O)c(C)c32)c1 [trametinib],decrease of osteopontin (SPP1) in Brpkp110 supernatants,osteopontin (SPP1),> 18 fold
same,growth compared to vehicle,Brpkp110 cells,70%
same,EC50,"human T cells [3]; T-cell, 168 h, human T cells activated with ConA for 7 days, N/A = ambiguous curve fits or EC50 greater than the highest concentration tested (25 μM)",0.337 nM
"IL-15: recombinant human IL-15 (Novoprotein), proliferative cytokine",rescue of T cell proliferation in the presence of the MEK inhibitors,human T cells [4]; GDC0973 or trametinib,able to rescue T cell proliferation
same,rescue of T cell expansion when PI3K and MEK inhibitors were combined,human T cells [4]; trametinib + BKM120,could not be fully rescued
same,rescue of the defect in ERK phosphorylation in the presence of BKM120,ERK1/2 phosphorylation; pan-PI3K inhibitor BKM120 present,unable to rescue
same,rescue of early TCR-induced MAPK signaling (ERK1/2 phosphorylation) from MEK inhibition,ERK1/2 phosphorylation; within 10 minutes,can rescue
